{
  "source": "patent US20160058771A1",
  "about": "“ALPHA-2 ADRENOCEPTOR AND SIGMA RECEPTOR LIGAND COMBINATIONS” (LABORATORIOS DEL DR. ESTEVE, S.A., priority 2013, published 2016)",
  "key": {"[1]": {"system": "male Swiss CD-1 mice", "assay": "Tail-flick test (radiant heat, acute thermal pain)", "type": "in vivo", "description": "Tail-flick test is a classical model of acute thermal pain (D'Amour and Smith, 1941) Pain sensitivity is measured in response to a radiant heat beam focused on the mouse tail. Latency to the first pain response is recorded as a measure of thermal pain sensitivity. The withdrawal is a classic nocifensive reflex that removes the body apart from the source of pain.\nMale Swiss CD-1 mice weighing between 30 and 35 g (Charles River, Barcelona, Spain) were used for all the experiments. The drugs evaluated were compound 63.HCl and clonidine hydrochloride and guanfacine, as alpha-2 adrenergic agonists. Compound 63.HCl was injected intraperitoneally (i.p.) in a volume of 10 ml/kg in 0.5% hydroxypropyl methyl cellulose (HPMC) and clonidine or guanfacine were administered subcutaneously (s.c.) dissolved in isotonic saline (0.9% NaCl) solution, in a volume of 5 ml/kg. Control animals received the same volume of vehicle.\nAntinociception was assessed using the radiant heat tail-flick test as described by Moncada et al., 2003. Briefly, the animals were restrained in a Plexiglas tube and placed on the tail-flick apparatus. The radiant heat source was focused on the proximal portion of the tail at about […] of the tip. Vehicle tail-flick latency (VL) was determined using a stimulus intensity adjusted to elicit a mean reaction time in the range of 2-4 s. Following vehicle or compound administration, test latencies (TL) were obtained at 30 min. A cut off time of 10 s was employed in order to prevent tissue damage. All experiments were performed under blind conditions.\nData were expressed as means±S.E.M of the […] (s.).\n(§1) In order to generate dose-response curves, raw data were converted to % maximum possible antinociceptive effect using the following equation:\n(§2) % MPE=[(TL−VL)/(Cut off−VL)]·100\nwhere MPE: maximum possible antinociceptive effect; TL: test latencies and VL: vehicle latency. 2.1. Effects of the Compound 63.HCl Alone or Combined with the Alpha-2 Agonist Clonidine"}, "[2]": {"system": "male Swiss CD-1 mice", "assay": "Hot-plate test (50° C., latency to hind paw licking)", "type": "in vivo", "conditions": "for analgesic effect (latency to hind paw licking): vs control, FIG. 6", "text": "The hot plate is another classical test of acute thermal nociception. This test consists of introducing mice into an open-ended cylindrical space with a floor consisting of a metallic plate that is heated to a constant temperature. Typical behavioural responses in mice are paw-licking and jumping (Le Bars et al., 2001)\nMale Swiss CD-1 mice weighing between 30 and 35 g (Charles River, Barcelona, Spain) were used for all the experiments. The drugs evaluated were the Sigma ligand Compound 63.HCl and the alpha-2 adrenergic agonists clonidine, guanfacine, and dexmedetomidine. Compound 63.HCl was injected intraperitoneally (i.p.) in a volume of 10 ml/kg in 0.5% hydroxypropyl methyl cellulose (HPMC), whereas clonidine, guanfacine and dexmedetomidine were administrated subcutaneously (s.c.) in saline, in a volume of 5 ml/kg. Control animals received the same volume of vehicle. The hot plate test was done 30 min after compound's administration. Mice were placed individually on the hot-plate at 50° C. and the reaction time starting from the placement of the mouse on the hot plate to the time of hind paw licking (HPL) was measured with a stopwatch. An independent untreated group of animals from each strain was used to evaluate the basal latencies and five times those values were chosen as the cut-off time to avoid tissue damage.\nData were expressed as means±S.E.M of the paw withdrawal latency (s).\nas §1, §2\nwhere MPE: maximum possible antinociceptive effect; TL: test latencies and VL: vehicle latency. 3.1. Effect of the Sigma Ligands Compound 63.HCl Alone or Combined with the Alpha-2 Agonist Clonidine"}},
  "note": "“Also recorded” adds a separate entry of the source. Counter-ions that a name gives are not always drawn.",
  "data": [
    {"smiles": "Clc1cccc(Cl)c1N=C1NCCN1", "note": "[clonidine]", "values": [
      {"measurement": "ED50", "setting": "[1]; Mus musculus, clonidine alone, sc, 0.125-1 mg/kg, % MPE dose-response, FIG. 2, read-out: ED50 (50% effective dose of clonidine)", "result": 0.18, "unit": "mg/kg"},
      {"measurement": "ED50", "setting": "[2]; Mus musculus, clonidine alone, sc, 0.125-1 mg/kg, FIG. 5, read-out: ED50 (50% effective dose of clonidine)", "result": 0.3, "unit": "mg/kg"}
    ]},
    {"smiles": "Cc1cc(OCCN2CCOCC2)nn1-c1ccc2ccccc2c1", "note": "[compound 63.HCl, 4-{2-[5-methyl-1-(naphthalen-2-yl)-1H-pyrazol-3-yloxy]ethyl}morpholine hydrochloride]", "values": [
      {"measurement": "effect on the dose-response curve of clonidine", "setting": "[1]; compound 63.HCl 40 mg/kg ip with clonidine 0.125-1 mg/kg sc, displacement to the left of the curve, FIG. 2", "result": "potentiates the antinociceptive effect of clonidine"},
      {"measurement": "antinociceptive effect (tail withdrawal latency)", "setting": "[1]; compound 63.HCl alone, 5, 10 and 40 mg/kg ip, 30 min before test, vs vehicle, FIG. 1", "result": "failed to produce a statistically significant antinociceptive effect"},
      {"measurement": "effect on the dose-response curve of clonidine", "setting": "[2]; Compound 63.HCl 40 mg/kg ip with clonidine 0.125-1 mg/kg sc, displacement to the left of the curve, FIG. 5", "result": "potentiated the antinociceptive effect of clonidine"},
      {"measurement": "antinociceptive effect (latency to hind paw licking)", "setting": "[2]; Compound 63.HCl alone 40 mg/kg ip, 30 min before test, FIG. 4, FIG. 5, hydrochloride", "result": "failed to produce a statistically significant antinociceptive effect; also recorded: showed no activity"}
    ]},
    {"smiles": "Cc1cccc([C@H](C)c2cnc[nH]2)c1C", "note": "[dexmedetomidine]", "values": [
      {"measurement": "analgesic effect (latency to hind paw licking)", "setting": "[2]; dexmedetomidine alone 0.01 mg/kg s.c.", "result": "not effective compared to control group"}
    ]},
    {"smiles": "N=C(N)NC(=O)Cc1c(Cl)cccc1Cl", "note": "[guanfacine]", "values": [
      {"measurement": "analgesic effect (tail withdrawal latency)", "setting": "[1]; guanfacine alone 1.25 mg/kg s.c., vs vehicle, FIG. 3", "result": "not effective compared to vehicle"},
      {"measurement": "analgesic effect (latency to hind paw licking)", "setting": "[2]; guanfacine alone 5 mg/kg s.c.", "result": "not effective compared to control group"}
    ]}
  ]
}
